From the SangsterLogP compilation

Row | Structure (SMILES) | logP
1 | CNC12CCC(CO)CC1Cc1ccccc12 (stereo not given) | 1.41
2 | CCNC12c3ccccc3CC1CCCC2C (stereo not given) | 3.8
3 | CNC12CCCCCC1Cc1ccccc12 (stereo not given) | 3.77
4 | CNC12CC=CCC1c1ccccc1C2 (stereo not given) | 3.28
5 | CNC12CCCCC1c1ccccc1C2 (stereo not given) | 3.43
6 | CNC12c3ccccc3CC1CCCC2C (stereo not given) | 3.44
7 | CNC12CCCCC1Cc1ccccc12 (stereo not given) | 3.37
8 | NC12CCCC1Cc1ccccc12 (stereo not given) | 2.58
9 | C=C1c2ccccc2C2(NC)CCCCC12 (stereo not given) | 3.79
10 | NC12CCC(CO)CC1Cc1ccccc12 (stereo not given) | 0.93
11 | CNC12CCCCC1Cc1ccc(OC)cc12 (stereo not given) | 3.54
12 | CNC12CCC(CN)CC1Cc1ccccc12 (stereo not given) | 1.84
13 | CNC12CCCCC1Cc1cc(OC)ccc12 (stereo not given) | 3.51
14 | CNCC1CCC2(NC)c3ccccc3CC2C1 (stereo not given) | 2.48
15 | NC12CCCCC1c1ccccc1C2 (stereo not given) | 2.94
